The NIST ThermoML archive (doi:10.1016/j.tca.2014.05.028)

Assay: xn = mol fraction of the nth substance listed
Conditions: 101 kPa, Liquid; for viscosity: Falling or rolling sphere viscometry; for mass density: Vibrating tube method

CCCC[N+]1(C)CCCC1.[Br-] [1-butyl-1-methylpyrrolidinium bromide] + O
Conditions	mass density, 298.15 K [kg/m3]	mass density, 303.15 K [kg/m3]	mass density, 308.15 K [kg/m3]	mass density, 313.15 K [kg/m3]	mass density, 318.15 K [kg/m3]	viscosity, 298.15 K [mPa·s]	viscosity, 303.15 K [mPa·s]	viscosity, 308.15 K [mPa·s]	viscosity, 313.15 K [mPa·s]	viscosity, 318.15 K [mPa·s]
x1 = 0.0265	1049.2	1047.05	1044.76	1042.32	1039.75	1.64	1.444	1.24	1.099	0.987
x1 = 0.0561	1093.18	1090.36	1087.45	1084.45	1081.37	2.906	2.5	2.11	1.833	1.621
x1 = 0.0871	1125.96	1122.7	1119.39	1116.03	1112.61	4.9	4.146	3.445	2.945	2.579
x1 = 0.1283	1156.08	1152.59	1149.06	1145.49	1141.9	8.897	7.398	6.041	5.106	4.399
x1 = 0.1645	1174.63	1171.08	1167.5	1163.9	1160.28	13.84	11.27	9.049	7.53	6.4
x1 = 0.2074	1190.42	1186.89	1183.35	1179.78	1176.2	22.21	17.69	13.87	11.35	9.501
x1 = 0.2525	1202.66	1199.19	1195.71	1192.21	1188.7	36.28	27.6	21.22	17.02	14.03
x1 = 0.28	1208.32	1204.89	1201.45	1198	1194.53	44.98	34.67	26.45	20.97	17.12
x1 = 0.3012	1212.16	1208.76	1205.35	1201.93	1198.5	54.7	41.65	31.5	24.8	20.1
x1 = 0.3254	1215.99	1212.62	1209.25	1205.87	1202.48	67.64	51.14	38.4	30.02	24.1
x1 = 1	1221.19	1217.27	1213.38	1209.51	1205.66	–	–	–	–	–
